The record followed here is PubChem BioAssay AID330 (DTP/NCI, 2004).

This experiment has as its system P388 leukemia ip, CD2F1 mice, survival T/C. Description: NCI In Vivo Anticancer Drug Screen. Data for tumor model P388 Leukemia (intraperitoneal) in CD2F1 (CDF1) mice. The conditions noted are these: endpoint: median survival time, higher = longer survival. An outline of the steps: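 Mice carrying the transplanted tumor received test compound or vehicle. Survival was recorded in each group, and the value is the treated-group measurement divided by that of the vehicle-treated control group.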

Where [1] appears, read: dose: 60.0 mg/kg/injection, schedule: Q01DX005 (ip), vehicle: saline with Tween-80.
Setting [2] is: dose: 240.0 mg/kg/injection, schedule: Q01DX005 (ip), vehicle: saline with Tween-80.
Setting [3] is: dose: 50.0 mg/kg/injection, schedule: Q01DX009 (ip), vehicle: saline with Tween-80.
The mark [4] stands for this setting: dose: 100.0 mg/kg/injection, schedule: Q01DX009 (ip), vehicle: saline with Tween-80.
The mark [5] stands for this setting: dose: 25.0 mg/kg/injection, schedule: Q01DX009 (ip), vehicle: saline with Tween-80.

“And” between values parts separate entries of the source, which are not always exact repeats. Equal values may be shown once. Toxic doses and inconclusive results are not listed.

For the compound `COc1cc2c(cc1OC)C(=O)CCC2`, the T/C was 105 % of control (dose: 25.0 mg/kg/injection, schedule: Q01DX009 (ip), vehicle: Klucel (hydroxypropylcellulose) (HPC)); 100 % of control (dose: 50.0 mg/kg/injection, schedule: Q01DX009 (ip), vehicle: Klucel (hydroxypropylcellulose) (HPC)); 106 % of control (dose: 100.0 mg/kg/injection, schedule: Q01DX009 (ip), vehicle: Klucel (hydroxypropylcellulose) (HPC)); 99 % of control (dose: 200.0 mg/kg/injection, schedule: Q01DX009 (ip), vehicle: Klucel (hydroxypropylcellulose) (HPC)).
Consider `CCn1c2ccccc2n2c(=O)c(Cc3ccccc3)c(C)c(C#N)c12`, for which the T/C reads like this: (dose: 15.0 mg/kg/injection, schedule: Q01DX005 (ip), vehicle: saline with Tween-80) 92 % of control; (dose: 30.0 mg/kg/injection, schedule: Q01DX005 (ip), vehicle: saline with Tween-80) 91 % of control; under setting [1], 88 % of control and 89 % of control; under setting [2], 86 % of control.
In the case of `CCN(CC)CCOCCC1(C)Oc2ccc(Cl)cc2O1` (stereo not given), the T/C is 93 % of control (dose: 50.0 mg/kg/injection, schedule: Q01DX009 (ip), vehicle: saline) and 93 % of control (dose: 100.0 mg/kg/injection, schedule: Q01DX009 (ip), vehicle: saline).
In the case of `CC(C)Cc1nccs1.CC(C)Cc1nccs1.CC(C)Cc1nccs1.CC(C)Cc1nccs1.[Cl][Rh][Cl]`, the T/C was 108 % of control (dose: 25.0 mg/kg/injection, schedule: Q01DX001 (ip), vehicle: Klucel (hydroxypropylcellulose) (HPC)); 100 % of control (dose: 50.0 mg/kg/injection, schedule: Q01DX001 (ip), vehicle: Klucel (hydroxypropylcellulose) (HPC)); 112 % of control (dose: 100.0 mg/kg/injection, schedule: Q01DX001 (ip), vehicle: Klucel (hydroxypropylcellulose) (HPC)).
Consider `CCCCCCCCCCCCCCCCS(=O)(=O)CCO`, for which the T/C by setting is: under setting [3], 95 % of control; under setting [4], 90 % of control; (dose: 200.0 mg/kg/injection, schedule: Q01DX009 (ip), vehicle: saline with Tween-80) 86 % of control.
In the case of `O=C(SCc1ccccc1)c1cccnc1`, the T/C by setting is: under setting [5], 105 % of control; under setting [3], 110 % of control; under setting [4], 100 % of control.
For `CCCCN(CCCC)CCC(O)c1cc2c(Cl)cc(Cl)cc2c2cc(C(F)(F)F)ccc12` (stereo not given), the T/C under setting [3] is 100 % of control and the T/C under setting [4] was 96 % of control.
With `COc1ccc(C[C@H](N)C(=O)NC2C(CO)OC(n3cnc4c(N(C)C)ncnc43)C2O)cc1` (stereo not given in full), the T/C (dose: 4.0 mg/kg/injection, schedule: Q03HX024 (ip), vehicle: saline) was 115 % of control; the T/C (dose: 8.0 mg/kg/injection, schedule: Q01DX005 (ip), vehicle: saline) was 112 % of control; the T/C (dose: 8.0 mg/kg/injection, schedule: Q01DX009 (ip), vehicle: saline) is 107 % of control; the T/C (dose: 16.0 mg/kg/injection, schedule: Q01DX005 (ip), vehicle: saline) was 106 % of control; the T/C (dose: 16.0 mg/kg/injection, schedule: Q01DX009 (ip), vehicle: saline) was 100 % of control; the T/C (dose: 16.0 mg/kg/injection, schedule: Q03HX024 (ip), vehicle: saline) is 92 % of control. Also, the T/C was 92 % of control (dose: 20.0 mg/kg/injection, schedule: Q01DX009 (ip), vehicle: water); 120 % of control (dose: 22.0 mg/kg/injection, schedule: Q01DX009 (ip), vehicle: saline with Tween-80); 106 % of control (dose: 32.0 mg/kg/injection, schedule: Q01DX005 (ip), vehicle: saline); 109 % of control (dose: 32.0 mg/kg/injection, schedule: Q01DX009 (ip), vehicle: saline); 107 % of control (dose: 32.0 mg/kg/injection, schedule: Q04DX003 (ip), vehicle: saline); 122 % of control (dose: 33.0 mg/kg/injection, schedule: Q01DX009 (ip), vehicle: saline with Tween-80). For the same compound, the T/C reads like this: (dose: 40.0 mg/kg/injection, schedule: Q01DX009 (ip), vehicle: water) 92 % of control; (dose: 60.0 mg/kg/injection, schedule: Q01DX009 (ip), vehicle: water) 90 % of control; (dose: 64.0 mg/kg/injection, schedule: Q01DX001 (ip), vehicle: saline) 101 % of control and 92 % of control; (dose: 64.0 mg/kg/injection, schedule: Q01DX005 (ip), vehicle: saline) 114 % of control; (dose: 64.0 mg/kg/injection, schedule: Q01DX009 (ip), vehicle: saline) 109 % of control; (dose: 64.0 mg/kg/injection, schedule: Q04DX003 (ip), vehicle: saline) 111 % of control. Also, the T/C runs as follows: (dose: 80.0 mg/kg/injection, schedule: Q01DX009 (ip), vehicle: water) 92 % of control; (dose: 100.0 mg/kg/injection, schedule: Q01DX009 (ip), vehicle: water) 95 % of control; (dose: 100.0 mg/kg/injection, schedule: Q04DX003 (ip), vehicle: saline with Tween-80) 104 % of control; (dose: 128.0 mg/kg/injection, schedule: Q01DX001 (ip), vehicle: saline) 118 % of control and 97 % of control; (dose: 128.0 mg/kg/injection, schedule: Q01DX005 (ip), vehicle: saline) 124 % of control; (dose: 128.0 mg/kg/injection, schedule: Q01DX009 (ip), vehicle: saline) 118 % of control. The T/C by setting is: (dose: 128.0 mg/kg/injection, schedule: Q04DX003 (ip), vehicle: saline) 100 % of control; (dose: 150.0 mg/kg/injection, schedule: Q01DX009 (ip), vehicle: saline sonified) 150 % of control; (dose: 200.0 mg/kg/injection, schedule: Q04DX003 (ip), vehicle: saline with Tween-80) 95 % of control; (dose: 256.0 mg/kg/injection, schedule: Q01DX001 (ip), vehicle: saline) 111 % of control; (dose: 256.0 mg/kg/injection, schedule: Q04DX003 (ip), vehicle: saline) 90 % of control; (dose: 400.0 mg/kg/injection, schedule: Q04DX003 (ip), vehicle: saline with Tween-80) 95 % of control.
For `COC(=O)C1=C(C(=O)OC)P2(c3ccccc3)(c3ccccc3)N(c3ccccc3)C(=Nc3ccccc3)N2C1(c1ccccc1)c1ccccc1`, the T/C (dose: 50.0 mg/kg/injection, schedule: Q01DX005 (ip), vehicle: Klucel (hydroxypropylcellulose) (HPC)) is 94 % of control; the T/C (dose: 100.0 mg/kg/injection, schedule: Q01DX005 (ip), vehicle: Klucel (hydroxypropylcellulose) (HPC)) is 102 % of control and 96 % of control; the T/C (dose: 200.0 mg/kg/injection, schedule: Q01DX005 (ip), vehicle: Klucel (hydroxypropylcellulose) (HPC)) was 100 % of control and 89 % of control.
`COc1cccc(C(c2cc3c(cc2O)OCO3)N2CCCC2)c1O` (stereo not given): the T/C by setting is: (dose: 60.0 mg/kg/injection, schedule: Q01DX005 (ip), vehicle: Klucel (hydroxypropylcellulose) (HPC)) 109 % of control; (dose: 120.0 mg/kg/injection, schedule: Q01DX005 (ip), vehicle: Klucel (hydroxypropylcellulose) (HPC)) 109 % of control; (dose: 240.0 mg/kg/injection, schedule: Q01DX005 (ip), vehicle: Klucel (hydroxypropylcellulose) (HPC)) 115 % of control.
Turning to `O=C(CCCl)Nc1ccc(CCC(=O)c2ccccc2NC(=O)CCCl)cc1`, the T/C is 100 % of control under setting [1]; 90 % of control (dose: 120.0 mg/kg/injection, schedule: Q01DX005 (ip), vehicle: saline with Tween-80); 92 % of control under setting [2].
With `CC(=O)OCC1OC(n2cnc3c(=S)nc(N)[nH]c32)C(OC(C)=O)C1OC(C)=O` (stereo not given), the T/C is 118 % of control (dose: 12.5 mg/kg/injection, schedule: Q04DX003 (ip), vehicle: saline with Tween-80); 122 % of control under setting [5]; 113 % of control under setting [3]; 100 % of control (dose: 300.0 mg/kg/injection, schedule: Q04DX003 (ip), vehicle: saline with Tween-80).
As for `CCOC(=O)C1=C(c2ccccc2)N(C)c2ccccc2S1`, the T/C runs as follows: (dose: 60.0 mg/kg/injection, schedule: Q01DX005 (ip), vehicle: saline + Tween-80 + alcohol) 100 % of control; (dose: 120.0 mg/kg/injection, schedule: Q01DX005 (ip), vehicle: saline + Tween-80 + alcohol) 103 % of control; (dose: 240.0 mg/kg/injection, schedule: Q01DX005 (ip), vehicle: saline + Tween-80 + alcohol) 100 % of control.
For `Cc1ccc(N=c2oc(-c3ccccc3)cs2)cc1`, the T/C (dose: 100.0 mg/kg/injection, schedule: Q01DX001 (ip), vehicle: saline with Tween-80) was 90 % of control; the T/C (dose: 200.0 mg/kg/injection, schedule: Q01DX001 (ip), vehicle: saline with Tween-80) is 89 % of control; the T/C (dose: 400.0 mg/kg/injection, schedule: Q01DX001 (ip), vehicle: saline with Tween-80) was 88 % of control.
